The target in assay [1] is T1, Aiolos (IKZF3) (Homo sapiens, UniProt Q96SW2+Q9UKT9).
T1 construct: endogenous in cells; host or cells: MOLT4
Kind of assay: Global multiplexed mass spectrometry proteomics in MOLT4 cells. In kind it is cell-based. As to conditions: 1 μM, 5 hours. The procedure: (§1) MOLT4 cells were treated with DMSO in biological triplicate and 1 μM BJG-05-039 for 5 hours and harvested by centrifugation. Cell lysis was performed by the addition of Urea buffer (8 M Urea, 50 mM NaCl, 50 mM 4-(2-hydroxyethyl)-1-piperazineethanesulfonic acid (EPPS) pH 8.5, Protease and Phosphatase inhibitors) followed by manual homogenization by 20 passes through a 21-gauge (1.25 in. long) needle. Lysate was clarified by centrifugation at 4° C. and protein quantified using bradford (Bio-Rad) assay. 100 μg of protein for each sample was reduced, alkylated and precipitated using methanol/chloroform as described (Donovan, et al. (2018) Elife 7: e38430). The resulting precipitated protein was resuspended in 4 M Urea, 50 mM HEPES pH 7.4, buffer for solubilization, followed by dilution to 1 M urea with the addition of 200 mM EPPS, pH 8. Proteins were digested for 12 hours at room temperature with LysC (1:50 ratio), followed by dilution to 0.5 M urea and a second digestion step was performed by addition of trypsin (1:50 ratio) for 6 hours at 37° C. Anhydrous ACN was added to each peptide sample to a final concentration of 30%, followed by addition of Tandem mass tag (TMT) reagents at a labelling ratio of 1:4 peptide:TMT label. TMT labelling occurred over a 1.5 hour incubation at room temperature followed by quenching with the addition of hydroxylamine to a final concentration of 0.3%. Each of the samples were combined using adjusted volumes and dried down in a speed vacuum followed by desalting with C18 SPE (Sep-Pak, Waters). […]
(§2) Quantification was performed using a MS3-based TMT method as described (Donovan et al. (2020) Cell 183(6):1714-1731). […]
(§3) Proteome Discoverer 2.4 (Thermo Fisher Scientific) was used for .RAW file processing and controlling peptide and protein level false discovery rates, assembling proteins from peptides, and protein quantification from peptides. […]

The target in assay [2] is T2, Ikaros (IKZF1) (Homo sapiens, UniProt Q13422+Q96SW2).
T2 construct: endogenous in cells; host or cells: MOLT4
The assay is described as above. Type of assay: cell-based. As to conditions: 1 μM, 5 hours. How it is done: as §1, §2, §3

Assay [3] addresses T3, RNF166 (Homo sapiens, UniProt Q96A37+Q96SW2).
T3 construct: endogenous in cells; host or cells: MOLT4
Described as above. As to conditions: 1 μM, 5 hours. Type of assay: cell-based. The procedure:
as §1, §2, §3

In assay [4] the target is STK39 (Homo sapiens, UniProt Q9UEW8). As to the kind of experiment: KINOMEscan. As to conditions: read-out: Percent Control.
Description: (§4) The kinase engagement assay (KINOMEscan®) was performed by DiscoverX assessing binding abilities toward a set of kinases.
Assay [5] addresses QSK (Homo sapiens, UniProt Q9Y2K2). As to the kind of experiment: KINOMEscan. As to conditions: read-out: Percent Control.
Description: as §4
Assay [6] concerns the target EGFR(L861Q) (Homo sapiens, UniProt P00533, L861Q). Kind of assay: KINOMEscan. The conditions noted are these: read-out: Percent Control.
Description: as §4
In assay [7] the target is WNK2 (Homo sapiens, UniProt Q9Y3S1). As to the kind of experiment: KINOMEscan. The conditions noted are these: read-out: Percent Control.
Description: as §4
Assay [8] deals with MERTK (Homo sapiens, UniProt Q12866). Kind of assay: KINOMEscan. As to conditions: read-out: Percent Control.
Chain of MERTK (Q12866 21-999): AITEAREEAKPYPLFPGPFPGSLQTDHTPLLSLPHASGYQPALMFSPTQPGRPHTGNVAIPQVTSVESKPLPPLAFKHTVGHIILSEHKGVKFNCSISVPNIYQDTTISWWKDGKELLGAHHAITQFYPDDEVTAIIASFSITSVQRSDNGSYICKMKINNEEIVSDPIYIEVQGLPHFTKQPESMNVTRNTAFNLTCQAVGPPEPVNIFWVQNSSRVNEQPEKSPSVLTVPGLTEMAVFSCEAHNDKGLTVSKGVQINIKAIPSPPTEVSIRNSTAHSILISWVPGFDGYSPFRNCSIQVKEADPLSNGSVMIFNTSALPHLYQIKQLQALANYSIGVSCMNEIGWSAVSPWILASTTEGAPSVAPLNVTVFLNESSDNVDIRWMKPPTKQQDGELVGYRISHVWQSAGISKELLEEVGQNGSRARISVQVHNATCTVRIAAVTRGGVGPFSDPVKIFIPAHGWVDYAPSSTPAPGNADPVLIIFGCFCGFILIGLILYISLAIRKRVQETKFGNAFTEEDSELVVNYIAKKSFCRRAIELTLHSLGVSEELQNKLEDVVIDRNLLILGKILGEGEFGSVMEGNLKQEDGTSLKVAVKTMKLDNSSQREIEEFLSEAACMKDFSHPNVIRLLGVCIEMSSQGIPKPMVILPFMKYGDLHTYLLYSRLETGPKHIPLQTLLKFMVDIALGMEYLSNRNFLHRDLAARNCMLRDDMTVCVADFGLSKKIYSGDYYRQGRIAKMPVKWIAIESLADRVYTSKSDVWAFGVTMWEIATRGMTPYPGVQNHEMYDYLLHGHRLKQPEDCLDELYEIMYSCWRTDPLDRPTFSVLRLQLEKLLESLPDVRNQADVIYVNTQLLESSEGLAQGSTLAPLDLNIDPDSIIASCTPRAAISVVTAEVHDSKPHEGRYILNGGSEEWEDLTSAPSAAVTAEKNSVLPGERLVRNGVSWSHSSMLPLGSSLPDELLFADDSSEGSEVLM
Description: as §4
Assay [9] has as its target PCTK3 (Homo sapiens, UniProt Q07002). As to the kind of experiment: KINOMEscan. The conditions noted are these: read-out: Percent Control.
Description: as §4
In assay [10] the target is PLK2 (Homo sapiens, UniProt Q9NYY3). Kind of assay: KINOMEscan. The conditions noted are these: read-out: Percent Control.
Description: as §4
Assay [11] has as its target ROCK2 (Homo sapiens, UniProt O75116). As to the kind of experiment: KINOMEscan. As to conditions: read-out: Percent Control.
Description: as §4
Assay [12] concerns the target PAK1 (Homo sapiens, UniProt Q13153). Kind of assay: Z'-LYTE FRET kinase inhibition assay. In kind it is biochemical. Also on record: human recombinant PAK1 (kinase domain); purchased Invitrogen PV2830. The procedure: The activity/inhibition of human recombinant PAK1 (kinase domain) or PAK2 (full length) was determined by measuring the phosphorylation of a FRET peptide substrate (Ser/Thr19) labeled with Coumarin and Fluorescein using Z′-LYTE™ assay (Invitrogen). The 10 μL assay mixtures contained 50 mM HEPES (pH 7.5), 0.01% Brij-35, 10 mM MgCl2, 1 mM EGTA, 2 μM FRET peptide substrate, and PAK enzyme (20 pM PAK1; 50 pM PAK2). Incubations were carried out at 22° C. in black polypropylene 384-well plates (Corning Costar). […] Following the 60-minute incubation, the assay mixtures were quenched by the addition of 5 μL of Z′-LYTE™ development reagent, and 1 hour later the emissions of Coumarin (445 nm) and Fluorescein (520 nm) were determined after excitation at 400 nm using an Envision plate reader (Perkin Elmer).

Each structure is given as a SMILES string.

Chain of PAK1 (Q13153 270-521 limits assumed): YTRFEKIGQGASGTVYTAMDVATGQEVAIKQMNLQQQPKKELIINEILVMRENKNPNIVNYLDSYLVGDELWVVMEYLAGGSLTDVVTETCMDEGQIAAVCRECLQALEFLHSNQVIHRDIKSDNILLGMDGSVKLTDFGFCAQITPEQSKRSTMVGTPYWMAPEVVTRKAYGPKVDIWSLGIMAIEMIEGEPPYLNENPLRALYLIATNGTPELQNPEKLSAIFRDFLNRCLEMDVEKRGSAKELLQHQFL
Chain of QSK (Q9Y2K2 whole entry): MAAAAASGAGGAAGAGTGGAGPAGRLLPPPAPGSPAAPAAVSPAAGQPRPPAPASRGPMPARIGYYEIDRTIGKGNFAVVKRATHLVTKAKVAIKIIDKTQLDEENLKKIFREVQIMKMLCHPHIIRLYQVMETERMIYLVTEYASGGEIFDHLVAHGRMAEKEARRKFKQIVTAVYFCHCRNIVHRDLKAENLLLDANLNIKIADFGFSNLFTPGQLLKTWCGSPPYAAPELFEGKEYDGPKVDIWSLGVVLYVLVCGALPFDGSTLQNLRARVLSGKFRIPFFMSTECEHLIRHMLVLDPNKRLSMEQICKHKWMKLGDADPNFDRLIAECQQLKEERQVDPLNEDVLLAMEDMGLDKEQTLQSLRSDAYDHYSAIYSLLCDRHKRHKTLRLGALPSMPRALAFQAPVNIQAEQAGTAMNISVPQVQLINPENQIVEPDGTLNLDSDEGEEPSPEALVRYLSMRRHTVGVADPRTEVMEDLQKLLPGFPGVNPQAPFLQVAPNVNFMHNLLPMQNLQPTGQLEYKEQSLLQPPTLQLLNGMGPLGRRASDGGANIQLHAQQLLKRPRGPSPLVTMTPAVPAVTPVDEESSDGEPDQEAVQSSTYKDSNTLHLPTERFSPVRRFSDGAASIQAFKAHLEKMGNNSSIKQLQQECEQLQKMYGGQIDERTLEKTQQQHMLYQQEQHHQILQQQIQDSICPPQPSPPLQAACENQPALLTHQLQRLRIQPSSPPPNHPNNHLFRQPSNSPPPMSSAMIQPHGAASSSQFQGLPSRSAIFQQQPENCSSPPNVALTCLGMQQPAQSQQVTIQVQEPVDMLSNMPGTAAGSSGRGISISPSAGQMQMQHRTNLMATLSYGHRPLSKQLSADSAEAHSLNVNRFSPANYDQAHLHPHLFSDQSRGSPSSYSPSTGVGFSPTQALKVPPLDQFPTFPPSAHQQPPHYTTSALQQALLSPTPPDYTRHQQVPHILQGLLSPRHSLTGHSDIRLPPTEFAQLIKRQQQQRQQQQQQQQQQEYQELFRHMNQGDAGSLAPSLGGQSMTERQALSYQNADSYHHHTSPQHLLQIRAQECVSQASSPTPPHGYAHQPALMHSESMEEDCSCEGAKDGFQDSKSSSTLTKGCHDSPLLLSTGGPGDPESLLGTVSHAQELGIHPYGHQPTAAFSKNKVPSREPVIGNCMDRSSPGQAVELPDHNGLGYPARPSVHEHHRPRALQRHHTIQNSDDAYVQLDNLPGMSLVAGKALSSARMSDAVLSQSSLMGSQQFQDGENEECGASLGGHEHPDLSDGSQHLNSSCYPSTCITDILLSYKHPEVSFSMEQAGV
T3 sequence (Q96A37 whole entry): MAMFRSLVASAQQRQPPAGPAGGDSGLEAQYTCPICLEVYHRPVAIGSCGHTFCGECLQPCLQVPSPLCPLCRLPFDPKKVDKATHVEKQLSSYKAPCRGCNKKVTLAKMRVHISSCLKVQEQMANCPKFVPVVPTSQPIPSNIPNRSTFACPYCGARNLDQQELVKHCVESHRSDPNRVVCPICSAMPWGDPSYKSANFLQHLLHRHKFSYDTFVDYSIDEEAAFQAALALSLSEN
T3 sequence (Q96SW2 whole entry): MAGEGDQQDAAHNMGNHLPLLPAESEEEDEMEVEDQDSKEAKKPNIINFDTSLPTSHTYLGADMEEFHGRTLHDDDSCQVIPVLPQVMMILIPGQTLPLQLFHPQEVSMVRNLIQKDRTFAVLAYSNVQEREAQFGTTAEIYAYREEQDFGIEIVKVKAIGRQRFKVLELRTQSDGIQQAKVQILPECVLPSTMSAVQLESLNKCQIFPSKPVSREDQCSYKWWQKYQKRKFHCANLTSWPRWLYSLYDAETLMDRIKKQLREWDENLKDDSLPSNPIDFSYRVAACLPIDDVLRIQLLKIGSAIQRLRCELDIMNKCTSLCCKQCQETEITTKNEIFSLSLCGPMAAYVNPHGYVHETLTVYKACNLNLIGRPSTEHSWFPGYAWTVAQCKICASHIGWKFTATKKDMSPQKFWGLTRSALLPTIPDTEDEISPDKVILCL
T3 sequence (Q16531 whole entry partner): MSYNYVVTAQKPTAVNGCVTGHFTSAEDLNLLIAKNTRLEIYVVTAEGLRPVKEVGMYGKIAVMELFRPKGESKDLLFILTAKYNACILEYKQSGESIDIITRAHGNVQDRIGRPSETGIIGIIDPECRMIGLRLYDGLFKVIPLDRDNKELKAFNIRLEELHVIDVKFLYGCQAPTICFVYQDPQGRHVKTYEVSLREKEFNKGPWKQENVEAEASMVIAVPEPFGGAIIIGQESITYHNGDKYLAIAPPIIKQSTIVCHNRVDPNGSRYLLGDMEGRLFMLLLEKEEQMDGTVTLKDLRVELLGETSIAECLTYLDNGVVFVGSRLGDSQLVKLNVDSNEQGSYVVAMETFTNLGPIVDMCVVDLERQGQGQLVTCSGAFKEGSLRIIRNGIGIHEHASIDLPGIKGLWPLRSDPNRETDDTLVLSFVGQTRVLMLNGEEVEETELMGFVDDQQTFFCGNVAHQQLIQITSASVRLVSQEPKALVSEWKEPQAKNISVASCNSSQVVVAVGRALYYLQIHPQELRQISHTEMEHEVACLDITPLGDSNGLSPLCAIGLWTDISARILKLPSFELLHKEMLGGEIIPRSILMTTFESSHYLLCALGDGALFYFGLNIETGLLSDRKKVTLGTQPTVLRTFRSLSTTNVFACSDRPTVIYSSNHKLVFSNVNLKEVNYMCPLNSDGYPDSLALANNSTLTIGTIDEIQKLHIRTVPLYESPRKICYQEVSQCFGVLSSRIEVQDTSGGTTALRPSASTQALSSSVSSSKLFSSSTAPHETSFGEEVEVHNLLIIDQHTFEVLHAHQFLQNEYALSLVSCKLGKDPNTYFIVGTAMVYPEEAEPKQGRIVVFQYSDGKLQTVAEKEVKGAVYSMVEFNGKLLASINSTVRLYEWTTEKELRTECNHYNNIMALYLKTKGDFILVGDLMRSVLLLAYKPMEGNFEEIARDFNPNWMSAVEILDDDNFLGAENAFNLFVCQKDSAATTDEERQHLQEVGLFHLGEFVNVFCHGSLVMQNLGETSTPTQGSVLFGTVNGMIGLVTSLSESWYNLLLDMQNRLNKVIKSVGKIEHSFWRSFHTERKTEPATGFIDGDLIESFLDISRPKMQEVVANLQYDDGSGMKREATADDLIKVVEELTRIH
T1 sequence (Q9UKT9 whole entry): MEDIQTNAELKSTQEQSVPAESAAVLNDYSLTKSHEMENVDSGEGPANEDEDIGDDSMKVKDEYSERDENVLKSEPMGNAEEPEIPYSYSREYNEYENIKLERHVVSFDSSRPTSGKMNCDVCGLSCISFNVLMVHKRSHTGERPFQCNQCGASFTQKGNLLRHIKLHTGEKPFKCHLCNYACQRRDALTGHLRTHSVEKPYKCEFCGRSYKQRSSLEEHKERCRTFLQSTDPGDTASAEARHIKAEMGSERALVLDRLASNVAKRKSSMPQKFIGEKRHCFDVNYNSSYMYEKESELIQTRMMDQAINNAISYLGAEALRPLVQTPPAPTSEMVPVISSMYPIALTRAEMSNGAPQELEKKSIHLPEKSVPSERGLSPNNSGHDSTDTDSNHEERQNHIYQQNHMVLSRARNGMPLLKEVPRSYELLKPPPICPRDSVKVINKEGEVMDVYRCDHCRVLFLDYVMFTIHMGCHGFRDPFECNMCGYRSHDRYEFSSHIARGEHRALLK
T1 sequence (Q96SW2 whole entry): as the sequence (Q96SW2 whole entry) above
T1 sequence (Q16531 whole entry partner): as the sequence (Q16531 whole entry partner) above

One may read the IC50 as the concentration that gives 50% inhibition. `O=C1CCC(N2C(=O)c3cccc(NCCCCCCCCNC(=O)N4CC[C@H](NC5=Nc6cc(F)ccc6N(CC(F)F)c6ccc(Cl)cc65)C4)c3C2=O)C(=O)N1` (stereo partly drawn) [BJG-05-039, (3S)-3-((2-Chloro-5-(2,2-difluoroethyl)-8-fluoro-5H-dibenzo[b,e][1,4]diazepin-11-yl)amino)-N-(8-((2-(2,6-dioxopiperidin-3-yl)-1,3-dioxoisoindolin-4-yl)amino)octyl)pyrrolidine-1-carboxamide]: the “Change in protein abundance” value in assay [1], in assay [2] and in assay [3] was “strongly downregulated” in each case. In addition, the remaining binding at 10 µM in assay [4] came to 70%; in assay [5] it was 78%; in [6], 88%; in assay [7], 89%; in assay [8], 90%; in assay [9] it was 91%. Moreover, the remaining binding at 10 µM in [10] and in assay [11] was 100% each time. Besides, the IC50 in [12] was 233 nM. The “Increase of selectivity over PAK2 relative to NVS-PAK-1” value in assay [12] (from Table 1) is recorded as “more than ten-fold”. In addition, the “PAK1 inhibitory activity and selectivity of conjugate” value in [12] (vs PAK2 and PAK4) was “retained PAK1 inhibitory activity and selectivity”.

These data come from patent US20250312462A1, “PAK1 DEGRADERS AND METHODS OF USE THEREOF” (INSTITUTE FOR CANCER RESEARCH D/B/A THE RESEARCH INSTITUTE …, priority 2022, published 2025).
